Experimental data published in the NIST ThermoML archive (doi:10.1016/j.jct.2018.10.026).
Numbers after ± are expanded uncertainties.

Settings: 101.33 kPa, Liquid; for mass density: Vibrating tube method; for viscosity: Concentric cylinders viscometry

Row | Structure (SMILES) | mass density (293.15 K) | mass density (298.15 K) | viscosity (303.15 K) | mass density (303.15 K) | viscosity (308.15 K) | mass density (308.15 K) | viscosity (313.15 K) | mass density (313.15 K) | viscosity (318.15 K) | mass density (318.15 K) | viscosity (323.15 K) | mass density (323.15 K) | viscosity (293.15 K) | viscosity (298.15 K)
1 | C[N+](C)(C)CCO.[O-]c1cccc2cccnc12 [choline 8-quinolinolate] | 1162.71 ± 6.5 kg/m3 | 1159.75 ± 6.5 kg/m3 | 4870960 ± 1.2e+06 mPa·s | 1156.73 ± 6.4 kg/m3 | 2363490 ± 570000 mPa·s | 1153.91 ± 6.4 kg/m3 | 1331720 ± 310000 mPa·s | 1150.97 ± 6.4 kg/m3 | 755840 ± 180000 mPa·s | 1147.91 ± 6.4 kg/m3 | 338330 ± 77000 mPa·s | 1144.78 ± 6.4 kg/m3 |  | 
2 | C[C@H](O)C(=O)[O-].C[N+](C)(C)CCO | 1137.33 ± 11 kg/m3 | 1133.94 ± 11 kg/m3 | 2903 ± 600 mPa·s | 1130.52 ± 11 kg/m3 | 2207 ± 460 mPa·s | 1127.05 ± 11 kg/m3 | 1728 ± 360 mPa·s | 1123.55 ± 11 kg/m3 | 1368 ± 280 mPa·s | 1120.11 ± 11 kg/m3 | 1110 ± 230 mPa·s | 1116.7 ± 11 kg/m3 | 5513 ± 1200 mPa·s | 3929 ± 820 mPa·s
